Assay results as given in publication PMC7504258, “New Hybrids of 4-Amino-2,3-polymethylene-quinoline and p-Tolylsulfonamide as Dual Inhibitors of Acetyl- and Butyrylcholinesterase and Potential Multifunctional Agents for Alzheimer’s Disease Treatment” (Molecules, 2020).

Legend:
[1] = target: EeAChE PAS (Electrophorus electricus, UniProt O42275); test: Propidium iodide displacement from the PAS of EeAChE (fluorescence); type: binding; conditions: compound concentration 20 µM; mean ± SEM, n = 3
Protocol: EeAChE was used owing to its high degree of purification, high activity, and lower cost than human AChE (hAChE).
To determine the degree of displacement (% displacement) of propidium from the PAS of AChE, EeAChE (final concentration, 7 μM) was incubated with the test compound at a concentration of 20 μM in 1 mM Tris-HCl buffer pH 8.0, 25 °C, for 15 min. Then, propidium iodide solution (final concentration, 8 μM) was added, the samples were incubated for 15 min and the fluorescence spectrum (530 nm (excitation) and 600 nm (emission)) was taken. […] The blank contained propidium iodide of the same concentration in 1 mM Tris-HCl buffer pH 8.0. The measurements were carried out in triplicate on the FLUOStar Optima microplate reader (BMG Labtech), and the results were calculated by the following formula:% Displacement = 100 − (IFAChE+ Propidium + inhibitor/IFAChE + Propidium) × 100(1) where IFAChE + Propidium is the fluorescence intensity of the propidium associated with AChE in the absence of the test compound (taken as 100%), and IFAChE + Propidium + inhibitor is the fluorescence intensity of the propidium associated with AChE in the presence of the test compound.

[2] = system: Porcine liver CES; test: CES inhibition (4-nitrophenyl acetate hydrolysis); type: biochemical; conditions: inhibition at compound concentration 20 µM; mean ± SEM, n = 3
Protocol: (§1) All experiments were carried out in accordance with the standard protocols approved by IPAC RAS. Human erythrocyte AChE, equine serum BChE, porcine liver CES, acetylthiocholine iodide (ATCh), butyrylthiocholine iodide (BTCh), 5,5′-dithio-bis-(2-nitrobenzoic acid) (DTNB), and 4-nitrophenol acetate (4-NPA) were purchased from Sigma-Aldrich (Saint Louis, MO, USA).
Final enzyme and substrate (4-nitrophenyl acetate) concentrations were 0.02 unit/mL and 1 mM, respectively. Assays were carried out with a blank containing all constituents except porcine CES to assess non-enzymatic hydrolysis.
(§2) An initial evaluation of inhibitory activity of compounds was carried out by determination of the AChE, BChE and CES inhibition at a compound concentration of 20 µM. For this, a sample of the corresponding enzyme was incubated with the test compound for 5 min at 25 °C for temperature equilibration; then the enzyme residual activity was determined. Each experiment was performed in triplicate.
(§3) The test compounds were added to the assay solution and incubated with the enzyme at 25 °C for 5 min (for temperature equilibration) followed by the addition of substrate. A parallel control was made for the assay solution with no inhibitor.
(§4) Measurements were performed in the FLUOStar OPTIMA microplate spectrophotometer (BMG Labtech, Ortenberg, Germany). Each experiment for the IC50 assay was performed in triplicate. The results were expressed as the mean ± SEM. The reaction rates in the presence and absence of inhibitor were compared, and the percent residual enzyme activity due to the presence of test compounds was calculated. IC50 values were determined graphically from inhibition curves (log inhibitor concentration vs. percent residual enzyme activity) using Origin 6.1 software (OriginLab, Northampton, MA, USA).

[3] = target: T1, Human erythrocyte AChE (Homo sapiens, UniProt P22303); test: biochemical; conditions: mean ± SEM, n = 3; pH 7.5, 25 °C
T1 construct: AChE from human erythrocytes was used; purchased Sigma-Aldrich; host or cells: human erythrocytes
T1 sequence (P22303 other isoform, or with tags, fused parts or gaps): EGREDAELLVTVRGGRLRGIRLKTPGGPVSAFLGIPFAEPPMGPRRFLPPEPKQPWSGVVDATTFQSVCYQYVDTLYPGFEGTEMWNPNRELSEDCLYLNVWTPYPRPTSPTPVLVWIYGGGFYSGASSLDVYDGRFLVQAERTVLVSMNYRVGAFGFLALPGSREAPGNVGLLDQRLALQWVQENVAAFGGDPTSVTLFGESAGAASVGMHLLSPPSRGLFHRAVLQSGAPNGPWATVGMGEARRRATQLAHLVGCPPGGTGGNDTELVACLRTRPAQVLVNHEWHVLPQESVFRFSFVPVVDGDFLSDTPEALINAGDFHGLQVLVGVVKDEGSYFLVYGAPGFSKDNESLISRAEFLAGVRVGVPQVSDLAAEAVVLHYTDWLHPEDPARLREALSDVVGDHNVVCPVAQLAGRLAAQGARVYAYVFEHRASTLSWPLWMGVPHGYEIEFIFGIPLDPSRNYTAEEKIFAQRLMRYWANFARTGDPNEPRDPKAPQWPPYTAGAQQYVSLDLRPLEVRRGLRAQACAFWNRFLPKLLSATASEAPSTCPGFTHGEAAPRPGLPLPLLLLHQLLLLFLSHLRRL
Protocol: as §1
(§5) AChE and BChE activities were measured by the colorimetric method of Ellman et al.. The assay solution consisted of 0.1 M K/Na phosphate buffer pH 7.5, 25 °C, 0.33 mM DTNB, 0.02 unit/mL AChE or BChE, and 1 mM substrate (ATCh or BTCh, respectively). Reagent blanks consisted of reaction mixtures without substrates.
as §2, §3, §4

[4] = target: T2, Equine serum BChE (Equus caballus, UniProt P81908); test: biochemical; conditions: for IC50: mean ± SEM, n = 3, pH 7.5, 25 °C; for Selectivity, S = IC50 AChE/IC50 BChE: ratio IC50 AChE/IC50 BChE
T2 construct: two enzymes of non-human origin: equine serum BChE and porcine liver CES; purchased Sigma-Aldrich; host or cells: equine serum
T2 sequence (P81908 whole entry): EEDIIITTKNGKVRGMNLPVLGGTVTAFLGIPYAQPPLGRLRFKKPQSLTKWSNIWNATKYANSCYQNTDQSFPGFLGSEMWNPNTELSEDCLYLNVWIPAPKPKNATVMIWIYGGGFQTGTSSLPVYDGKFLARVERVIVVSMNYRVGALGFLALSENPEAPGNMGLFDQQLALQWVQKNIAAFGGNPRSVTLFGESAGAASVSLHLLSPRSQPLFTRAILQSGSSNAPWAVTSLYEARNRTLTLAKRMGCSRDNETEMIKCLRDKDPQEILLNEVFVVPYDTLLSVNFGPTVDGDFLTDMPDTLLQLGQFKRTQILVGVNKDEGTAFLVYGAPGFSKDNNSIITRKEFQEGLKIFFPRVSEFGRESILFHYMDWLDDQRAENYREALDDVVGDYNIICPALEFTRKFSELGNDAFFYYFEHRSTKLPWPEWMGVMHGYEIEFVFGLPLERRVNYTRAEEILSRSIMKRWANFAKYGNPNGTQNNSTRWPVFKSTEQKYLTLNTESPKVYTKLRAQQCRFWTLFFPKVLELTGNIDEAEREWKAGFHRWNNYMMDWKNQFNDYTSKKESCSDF
Protocol: as §1, §5, §2, §3, §4

[5] = target: T3, BChE (Equus caballus, UniProt P81908); test: Kinetic study of BChE inhibition, steady-state inhibition constants; type: biochemical
T3 construct: two enzymes of non-human origin: equine serum BChE and porcine liver CES; purchased Sigma-Aldrich; host or cells: equine serum
T3 sequence (P81908 whole entry): as above
Protocol: (§6) • Kinetic Study of AChE and BChE Inhibition. Determination of Steady-State Inhibition Constants
(§7) Mechanisms of AChE and BChE inhibition were assessed via a thorough analysis of enzyme kinetics. Residual activity was measured following 5 min incubation at 25 °C (for temperature equilibration) with three increasing concentrations of inhibitor and six decreasing substrate concentrations. Substrate was added immediately after the 5 min incubation with inhibitor and the rates of absorption were monitored at 412 nm using the FLUOStar OPTIMA (BMG Labtech) microplate spectrophotometer. Inhibition constants Ki (competitive component) and αKi (noncompetitive component) were determined by linear regression of 1/V versus 1/[S] double-reciprocal (Lineweaver-Burk) plots using Origin 6.1 software. Data were expressed as mean ± SEM (n = 3 experiments).

[6] = target: T4, AChE (Homo sapiens, UniProt P22303); test: Kinetic study of AChE inhibition, steady-state inhibition constants; type: biochemical; conditions: for Type of AChE inhibition: changes in both Km and Vmax
T4 construct: AChE from human erythrocytes was used; purchased Sigma-Aldrich; host or cells: human erythrocytes
T4 sequence (P22303 other isoform, or with tags, fused parts or gaps): as the sequence (P22303 other isoform, or with tags, fused parts or gaps) above
Protocol: as §6, §7

[7] = system: AChE-induced Aβ aggregation; conditions: at 100 µM; cited from earlier work

Chain of EeAChE PAS (O42275 24-633): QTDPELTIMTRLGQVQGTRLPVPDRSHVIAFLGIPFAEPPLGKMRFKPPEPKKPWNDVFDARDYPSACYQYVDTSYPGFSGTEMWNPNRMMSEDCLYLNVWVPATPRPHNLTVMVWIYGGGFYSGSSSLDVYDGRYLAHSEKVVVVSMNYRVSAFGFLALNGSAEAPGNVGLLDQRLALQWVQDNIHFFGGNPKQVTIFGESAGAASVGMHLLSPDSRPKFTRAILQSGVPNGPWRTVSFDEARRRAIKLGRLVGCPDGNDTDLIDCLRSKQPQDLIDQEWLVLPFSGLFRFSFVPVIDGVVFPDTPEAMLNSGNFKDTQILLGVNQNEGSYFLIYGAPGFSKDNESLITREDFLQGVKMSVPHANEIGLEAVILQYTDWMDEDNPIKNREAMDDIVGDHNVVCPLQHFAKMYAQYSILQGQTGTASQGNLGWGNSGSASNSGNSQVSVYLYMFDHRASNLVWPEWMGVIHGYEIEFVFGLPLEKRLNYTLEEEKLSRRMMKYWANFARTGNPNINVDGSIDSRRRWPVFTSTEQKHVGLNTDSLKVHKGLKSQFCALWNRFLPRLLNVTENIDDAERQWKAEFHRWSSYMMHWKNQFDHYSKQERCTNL

Row | SMILES | Displacement of Propidium from the EeAChE PAS [1] | Porcine Liver CES, (%) [2] | IC50 [3] | IC50 [4] | Selectivity, S = IC50 AChE/IC50 BChE [4] | αKi (noncompetitive component), BChE ([5]; Lineweaver-Burk analysis) | Ki ([5]; Lineweaver-Burk analysis, read-out: Ki (competitive component), BChE) | Type of BChE inhibition ([5]; changes in both Km and Vmax) | αKi (noncompetitive component), AChE ([6]; Lineweaver-Burk analysis) | Ki ([6]; Lineweaver-Burk analysis, read-out: Ki (competitive component), AChE) | Type of AChE inhibition [6] | decrease in AChE-induced Aβ aggregation [7]
1 | Cc1ccc(S(=O)(=O)NCCNc2c3c(nc4ccccc24)CCC3)cc1 [7a, N-(2-(2,3-Dihydro-1H-cyclopenta[b]quinolin-9-ylamino)-ethyl)-4-methyl-benzenesulfonamide] | 9.2 ± 1.0% | 11.9 ± 1.5% | 9030 ± 640 nM | 924 ± 31 nM | 9.8 | – | – | – | – | – | – | –
2 | Cc1ccc(S(=O)(=O)NCCCNc2c3c(nc4ccccc24)CCC3)cc1 [7b, N-(3-(2,3-Dihydro-1H-cyclopenta[b]quinolin-9-ylamino)-propyl)-4-methyl-benzenesulfonamide] | 12.3 ± 1.1% | 8.1 ± 0.6% | 7760 ± 610 nM | 327 ± 4 nM | 23.7 | – | – | – | – | – | – | –
3 | Cc1ccc(S(=O)(=O)NCCCCNc2c3c(nc4ccccc24)CCC3)cc1 [7c, N-(4-(2,3-Dihydro-1H-cyclopenta[b]quinolin-9-ylamino)-butyl)-4-methyl-benzenesulfonamide] | 14.9 ± 1.2% | 9.0 ± 0.1% | 2080 ± 80 nM | 578 ± 25 nM | 3.6 | – | – | – | – | – | – | –
4 | Cc1ccc(S(=O)(=O)NCCCCCNc2c3c(nc4ccccc24)CCC3)cc1 [7d, N-(5-(2,3-Dihydro-1H-cyclopenta[b]quinolin-9-ylamino)-pentyl)-4-methyl-benzenesulfonamide] | 15.1 ± 1.4% | 29.6 ± 1.2% | 1970 ± 50 nM | 459 ± 44 nM | 4.3 | – | – | – | – | – | – | –
5 | Cc1ccc(S(=O)(=O)NCCCCCCNc2c3c(nc4ccccc24)CCC3)cc1 [7e, N-(6-(2,3-Dihydro-1H-cyclopenta[b]quinolin-9-ylamino)-hexyl)-4-methyl-benzenesulfonamide] | 15.9 ± 1.3% | 18.6 ± 0.2% | 4000 ± 90 nM | 209 ± 8 nM | – | – | – | – | – | – | – | –
6 | Cc1ccc(S(=O)(=O)NCCCNc2c3c(nc4ccccc24)CCCC3)cc1 [7f, 4-Methyl-N-(3-(1,2,3,4-tetrahydro-acridin-9-ylamino)-propyl)-benzenesulfonamide] | 9.8 ± 0.8% | 2.0 ± 0.8% | 1880 ± 30 nM | 110 ± 5 nM | 17.1 | – | – | – | – | – | – | –
7 | Cc1ccc(S(=O)(=O)NCCCCNc2c3c(nc4ccccc24)CCCC3)cc1 [7g, 4-Methyl-N-(4-(1,2,3,4-tetrahydro-acridin-9-ylamino)-butyl)-benzenesulfonamide] | 14.8 ± 1.3% | 17.1 ± 1.4% | 668 ± 170 nM | 61.7 ± 0.3 nM | 10.8 | 0.117 ± 0.002 µM | 23.5 ± 0.2 nM | mixed type of inhibition | 1.09 ± 0.02 µM | 390 ± 8 nM | mixed type of inhibition | –
8 | Cc1ccc(S(=O)(=O)NCCCCCNc2c3c(nc4ccccc24)CCCC3)cc1 [7h, 4-Methyl-N-(5-(1,2,3,4-tetrahydro-acridin-9-ylamino)-pentyl)-benzenesulfonamide] | 17.5 ± 1.5% | 6.7 ± 0.8% | 131 ± 10 nM | 68 ± 1.4 nM | 1.9 | – | – | – | – | – | mixed-type AChE inhibitor | –
9 | Cc1ccc(S(=O)(=O)NCCCNc2c3c(nc4ccccc24)CCCCC3)cc1 [7i, 4-Methyl-N-(3-(7,8,9,10-tetrahydro-6H-cyclohepta[b]quinolin-11-ylamino)-propyl)-benzenesulfonamide] | 13.9 ± 1.3% | 1.9 ± 0.9% | 2760 ± 40 nM | 43.1 ± 1.1 nM | 64.0 | – | – | – | – | – | – | –
10 | Cc1ccc(S(=O)(=O)NCCCCNc2c3c(nc4ccccc24)CCCCC3)cc1 [7j, 4-Methyl-N-(4-(7,8,9,10-tetrahydro-6H-cyclohepta[b]quinolin-11-ylamino)-butyl)-benzenesulfonamide] | 16.1 ± 1.4% | 10.3 ± 0.8% | 1160 ± 30 nM | 78.8 ± 6 nM | 14.7 | – | – | – | – | – | – | –
11 | Cc1ccc(S(=O)(=O)NCCCNc2c3c(nc4ccccc24)CCCCCC3)cc1 [7k, N-(3-(6,7,8,9,10,11-Hexahydro-cycloocta[b]quinolin-12-ylamino)-propyl)-4-methyl-benzenesulfonamide] | 15.9 ± 1.7% | 5.2 ± 1.5% | 11100 ± 200 nM | 461 ± 7 nM | 24.1 | – | – | – | – | – | – | –
12 | O=[N+]([O-])c1ccc(OP(=O)(O)Oc2ccc([N+](=O)[O-])cc2)cc1 [BNPP, bis-4-nitrophenyl phosphate, reference compound] | – | 1.80 ± 0.11% | – | – | – | – | – | – | – | – | – | –
13 | CC[N+](C)(CC)CCC[n+]1c(-c2ccccc2)c2cc(N)ccc2c2ccc(N)cc21 [Propidium] | – | – | – | – | – | – | – | – | – | – | – | 82%
